From patent publication US9346818B2 (priority 2012, dated 2016)
Entries after “also recorded” stand apart in the source; their conditions may differ. Where two headings read alike, the source gives them in different places.

Tests used:
acetylcholinesterase = acetylcholinesterase (Homo sapiens (Human), UniProt P22303); assay: biochemical; assay type: biochemical; conditions: for potency on acetylcholinesterase compared with positive control drug donepezil hydrochloride: in vitro, enzymology level
[1] = system: learning and memory disorder of mice induced by scopolamine; assay: Morris water maze test, senile dementia mice model induced by scopolamine; assay type: in vivo; conditions: Table 6, scopolamine 1 mg/kg
[2] = read-out: IC50 (nM), inhibition activity on acetylcholinesterase
[3] = modified Ellman method, read-out: IC50 (nM), inhibition activity on acetylcholinesterase
[4] = IC50 (nM), inhibition activity on acetylcholinesterase, modified Ellman method

Sequence of acetylcholinesterase (P22303 32-614, species assumed): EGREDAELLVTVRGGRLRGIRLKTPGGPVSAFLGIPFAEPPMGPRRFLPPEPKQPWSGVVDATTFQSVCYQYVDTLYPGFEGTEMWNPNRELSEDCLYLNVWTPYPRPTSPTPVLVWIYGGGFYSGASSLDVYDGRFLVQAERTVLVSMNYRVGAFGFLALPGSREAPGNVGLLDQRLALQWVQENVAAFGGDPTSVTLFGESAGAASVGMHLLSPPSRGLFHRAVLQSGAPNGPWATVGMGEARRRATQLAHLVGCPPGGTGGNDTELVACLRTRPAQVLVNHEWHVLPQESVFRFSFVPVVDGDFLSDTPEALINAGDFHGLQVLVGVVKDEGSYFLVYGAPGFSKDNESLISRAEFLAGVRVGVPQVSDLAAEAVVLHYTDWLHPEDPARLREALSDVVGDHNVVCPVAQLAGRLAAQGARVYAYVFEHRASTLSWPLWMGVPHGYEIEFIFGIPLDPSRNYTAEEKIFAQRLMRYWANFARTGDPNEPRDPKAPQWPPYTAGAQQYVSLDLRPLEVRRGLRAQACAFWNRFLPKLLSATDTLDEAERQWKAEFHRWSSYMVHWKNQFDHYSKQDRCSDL

Row | SMILES | potency on acetylcholinesterase compared with positive control drug donepezil hydrochloride (acetylcholinesterase) | IC50 (acetylcholinesterase; [3]) | further results
1 | O=C1c2cc3c(cc2C(=O)N1CCC1CCN(Cc2ccccc2F)CC1)OCO3 [Compound I-2, 6-[2-[1-[(2-fluorophenyl)methyl]-4-piperidyl]ethyl]-[1,3]dioxolo[4,5-f]isoindole-5,7-dione] | slightly higher potency than the positive control drug; also recorded: comparable inhibition activity on acetylcholinesterase with donepezil hydrochloride | – | IC50 (acetylcholinesterase; [2]): 80 nM
2 | O=C1c2cc3c(cc2C(=O)N1CCC1CCN(Cc2ccc(F)cc2)CC1)OCO3 [Compound I-4, 6-[2-[1-[(4-fluorophenyl)methyl]-4-piperidyl]ethyl]-[1,3]dioxolo[4,5-f]isoindole-5,7-dione] | slightly lower potency than the positive control drug; also recorded: comparable inhibition activity on acetylcholinesterase with donepezil hydrochloride | 167 nM | –
3 | O=C1c2cc3c(cc2CN1CCC1CCN(Cc2ccccc2)CC1)OCO3 [Compound I-5, 6-[2-(1-benzyl-4-piperidyl)ethyl]-5H-[1,3]dioxolo[4,5-f]isoindol-7-one] | even lower | – | IC50 (acetylcholinesterase; [4]): 502 nM
4 | O=C1c2cc3c(cc2CN1CCC1CCN(Cc2ccccc2F)CC1)OCO3 [Compound I-6, 6-[2-[1-[(2-fluorophenyl)methyl]-4-piperidyl]ethyl]-5H-[1,3]dioxolo[4,5-f]isoindol-7-one] | even lower | 483 nM | –
5 | O=C1c2cc3c(cc2CN1CCC1CCN(Cc2cccc(F)c2)CC1)OCO3 [Compound I-7, 6-[2-[1-[(3-fluorophenyl)methyl]-4-piperidyl]ethyl]-5H-[1,3]dioxolo[4,5-f]isoindol-7-one] | even lower | 486 nM | –
6 | O=C1c2cc3c(cc2CN1CCC1CCN(Cc2ccc(F)cc2)CC1)OCO3 [Compound I-8, 6-[2-[1-[(4-fluorophenyl)methyl]-4-piperidyl]ethyl]-5H-[1,3]dioxolo[4,5-f]isoindol-7-one] | even lower | 658 nM | –
7 | CC1c2cc3c(cc2C(=O)N1CCC1CCN(Cc2ccccc2)CC1)OCO3 (centres unmarked) [Compound I-9, 6-[2-(1-benzyl-4-piperidyl)ethyl]-5-methyl-5H-[1,3]dioxolo[4,5-f]isoindol-7-one] | – | – | latent period day 1 ([1]; 5 mg/kg intragastric): 58.9 ± 4.0 s; latent period day 2 ([1]; 5 mg/kg intragastric): 60 ± 0 s; latent period day 3 ([1]; 5 mg/kg intragastric): 51.2 ± 11.0 s; latent period day 4 ([1]; 5 mg/kg intragastric): 53.4 ± 11.8 s; latent period day 5 ([1]; 5 mg/kg intragastric): 51.1 ± 11.5 s; times of crossing platform ([1]; 5 mg/kg intragastric): 1.27 ± 1.44; latent period day 1 ([1]; 10 mg/kg intragastric): 58.3 ± 6.5 s; latent period day 2 ([1]; 10 mg/kg intragastric): 56.6 ± 9.1 s; latent period day 3 ([1]; 10 mg/kg intragastric): 56.5 ± 6.3 s; latent period day 4 ([1]; 10 mg/kg intragastric): 51.1 ± 11.6 s; latent period day 5 ([1]; 10 mg/kg intragastric): 49.2 ± 16.9 s; times of crossing platform ([1]; 10 mg/kg intragastric): 1.80 ± 1.74
8 | CC1c2cc3c(cc2C(=O)N1CCC1CCN(Cc2ccccc2F)CC1)OCO3 (centres unmarked) [Compound I-10, 6-[2-[1-[(2-fluorophenyl)methyl]-4-piperidyl]ethyl]-5-methyl-5H-[1,3]dioxolo[4,5-f]isoindol-7-one] | slightly lower potency than the positive control drug | 239 nM | –
9 | CC1c2cc3c(cc2C(=O)N1CCC1CCN(Cc2cccc(F)c2)CC1)OCO3 (centres unmarked) [Compound I-11, 6-[2-[1-[(3-fluorophenyl)methyl]-4-piperidyl]ethyl]-5-methyl-5H-[1,3]dioxolo[4,5-f]isoindol-7-one] | even lower | 889 nM | –
10 | CC1c2cc3c(cc2C(=O)N1CCC1CCN(Cc2ccc(F)cc2)CC1)OCO3 (centres unmarked) [Compound I-12, 6-[2-[1-[(4-fluorophenyl)methyl]-4-piperidyl]ethyl]-5-methyl-5H-[1,3]dioxolo[4,5-f]isoindol-7-one] | relative low activity | > 2000 nM | –
11 | CC1(C)c2cc3c(cc2C(=O)N1CCC1CCN(Cc2ccccc2)CC1)OCO3 [Compound I-13, 6-[2-(1-benzyl-4-piperidyl)ethyl]-7,7-dimethyl-[1,3]dioxolo[4,5-f]isoindol-5-one] | relative low activity | – | IC50 (acetylcholinesterase; [4]): > 2000 nM
12 | CC1(C)c2cc3c(cc2C(=O)N1CCC1CCN(Cc2ccc(F)cc2)CC1)OCO3 [Compound I-16, 6-[2-[1-[(4-fluorophenyl)methyl]-4-piperidyl]ethyl]-7,7-dimethyl-[1,3]dioxolo[4,5-f]isoindol-5-one] | relative low activity | > 2000 nM | –
13 | O=C1c2cc3c(cc2C2(CC2)N1CCC1CCN(Cc2ccc(F)cc2)CC1)OCO3 [Compound I-20, 6-[2-[1-[(4-fluorophenyl)methyl]-4-piperidyl]ethyl]spiro[[1,3]dioxolo[4,5-f]isoindole-7,1′-cyclopropane]-5-one] | even lower | 706 nM | –
14 | O=C1c2cc3c(cc2C2(CC2)N1CCC1CCN(Cc2ccccc2Cl)CC1)OCO3 [Compound I-21, 6-[2-[1-[(2-chlorophenyl)methyl]-4-piperidyl]ethyl]spiro[[1,3]dioxolo[4,5-f]isoindole-7,1′-cyclopropane]-5-one] | even lower | 653 nM | –
15 | O=C1c2cc3c(cc2C2(CC2)N1CCC1CCN(Cc2ccccc2C(F)(F)F)CC1)OCO3 [Compound I-22, 6-[2-[1-[[2-(trifluoromethyl)phenyl]methyl]-4-piperidyl]ethyl]spiro[[1,3]dioxolo[4,5-f]isoindole-7,1′-cyclopropane]-5-one] | relative low activity | > 2000 nM | –
16 | N#Cc1ccccc1CN1CCC(CCN2C(=O)c3cc4c(cc3C23CC3)OCO4)CC1 [Compound I-24, 6-[2-[1-[(2-cyanophenyl)methyl]-4-piperidyl]ethyl]spiro[[1,3]dioxolo[4,5-f]isoindole-7,1′-cyclopropane]-5-one] | relative low activity | > 2000 nM | –
17 | O=C1c2cc3c(cc2C2(CC2)N1CCC1CCN(Cc2c(F)cccc2F)CC1)OCO3 [Compound I-25, 6-[2-[1-[(2,6-difluorophenyl)methyl]-4-piperidyl]ethyl]spiro[[1,3]dioxolo[4,5-f]isoindole-7,1′-cyclopropane]-5-one] | slightly lower potency than the positive control drug | – | IC50 (acetylcholinesterase; [2]): 249 nM
18 | COc1ccccc1CN1CCC(CCN2C(=O)c3cc4c(cc3C23CC3)OCO4)CC1 [Compound I-26, 6-[2-[1-[(2-methoxyphenyl)methyl]-4-piperidyl]ethyl]spiro[[1, 3]dioxolo[4,5-f]isoindole-7,1′-cyclopropane]-5-one] | relative low activity | > 2000 nM | –
19 | COc1cccc(CN2CCC(CCN3C(=O)c4cc5c(cc4C34CC4)OCO5)CC2)c1 [Compound I-27, 6-[2-[1-[(3-methoxyphenyl)methyl]-4-piperidyl]ethyl]spiro[[1, 3]dioxolo[4,5-f]isoindole-7,1′-cyclopropane]-5-one] | relative low activity | > 2000 nM | –
20 | COc1ccc(CN2CCC(CCN3C(=O)c4cc5c(cc4C34CC4)OCO5)CC2)cc1 [Compound I-28, 6-[2-[1-[(4-methoxyphenyl)methyl]-4-piperidyl]ethyl]spiro[[1, 3]dioxolo[4,5-f]isoindole-7,1′-cyclopropane]-5-one] | relative low activity | – | IC50 (acetylcholinesterase; [2]): > 2000 nM
21 | O=C1c2cc3c(cc2C2(CC2)N1CCC1CCN(Cc2cccnc2)CC1)OCO3 [Compound I-30, 6-[2-[1-(3-pyridylmethyl)-4-piperidyl]ethyl]spiro[[1,3]dioxolo[4,5-f]isoindole-7,1′-cyclopropane]-5-one] | relative low activity | > 2000 nM | –
22 | O=C1c2cc3c(cc2C2(CC2)N1CCC1CCN(Cc2ccncc2)CC1)OCO3 [Compound I-31, 6-[2-[1-(4-pyridylmethyl)-4-piperidyl]ethyl]spiro[[1,3]dioxolo[4,5-f]isoindole-7,1′-cyclopropane]-5-one] | relative low activity | – | IC50 (acetylcholinesterase; [2]): > 2000 nM
23 | O=C1c2cc3c(cc2C2(CC2)N1CCC1CCN(Cc2ncccn2)CC1)OCO3 [Compound I-32, 6-[2-[1-(pyrimidin-2-ylmethyl)-4-piperidyl]ethyl]spiro[[1,3]dioxolo[4,5-f]isoindole-7,1′-cyclopropane]-5-one] | relative low activity | > 2000 nM | –
24 | O=C1c2cc3c(cc2C(=O)N1CCC1CCN(Cc2ccccn2)CC1)OCO3 [Compound I-36, 6-[2-[1-(2-pyridylmethyl)-4-piperidyl]ethyl]-[1,3]dioxolo[4,5-f]isoindole-5,7-dione] | slightly lower potency than the positive control drug | 161 nM | –
25 | O=C1c2cc3c(cc2C(=O)N1CCC1CCN(Cc2cccnn2)CC1)OCO3 [Compound I-37, 6-[2-[1-(pyridazin-3-ylmethyl)-4-piperidyl]ethyl]-[1,3]dioxolo[4,5-f]isoindole-5,7-dione] | even lower | 905 nM | –
26 | O=C1c2cc3c(cc2C2(CC2)N1CCC1CCN(Cc2cccnn2)CC1)OCO3 [Compound I-38, 6-[2-[1-(pyridazin-3-ylmethyl)-4-piperidyl]ethyl]spiro[[1,3]dioxolo[4,5-f]isoindole-7,1′-cyclopropane]-5-one] | relative low activity | – | IC50 (acetylcholinesterase; [2]): > 2000 nM
